# Assays:
# Format in all cases: cell-based
# AKT1 E17K = target: T1, AKT1 E17K (Homo sapiens, UniProt P31749, E17K); experiment: Live cell AKT1 E17K target engagement by NanoBRET competitive probe displacement; conditions: HEK293 cells transfected with kinase-NanoLuciferase fusion, 2 h at 37° C.
# T1 construct: expressed in transfected cells; host or cells: HEK293
# In short: (§1)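 IC50 reflects displacement of a fluorescent ATP-competitive tracer, dosed near its EC50, from kinase–NanoLuciferase fusions in live HEK293 cells. Cells were incubated with compound and tracer for 2 h at 37 °C, then E600/E460 BRET was read.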
# AKT2 = target: T2, AKT2 (Homo sapiens, UniProt P31751); experiment: Live cell AKT2 target engagement by NanoBRET competitive probe displacement; conditions: HEK293 cells transfected with kinase-NanoLuciferase fusion, 2 h at 37° C.
# T2 construct: expressed in transfected cells; host or cells: HEK293
# T2 sequence (P31751 whole entry, the tested form may be a part): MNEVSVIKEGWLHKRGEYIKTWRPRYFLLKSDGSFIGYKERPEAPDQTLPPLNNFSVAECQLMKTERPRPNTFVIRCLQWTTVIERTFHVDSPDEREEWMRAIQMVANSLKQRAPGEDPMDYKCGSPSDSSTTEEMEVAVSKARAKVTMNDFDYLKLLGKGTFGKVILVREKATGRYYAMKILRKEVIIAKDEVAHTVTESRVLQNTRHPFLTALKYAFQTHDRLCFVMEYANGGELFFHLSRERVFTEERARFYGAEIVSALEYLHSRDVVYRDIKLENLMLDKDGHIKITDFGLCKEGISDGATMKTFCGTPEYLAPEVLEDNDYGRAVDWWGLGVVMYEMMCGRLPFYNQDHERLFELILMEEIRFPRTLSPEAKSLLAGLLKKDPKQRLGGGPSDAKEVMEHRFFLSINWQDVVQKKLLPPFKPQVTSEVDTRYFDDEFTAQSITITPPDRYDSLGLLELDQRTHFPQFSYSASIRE
# In short: as §1
# AKT1 WT = target: T3, AKT1 WT (Homo sapiens, UniProt P31749); experiment: Live cell AKT1 WT target engagement by NanoBRET competitive probe displacement; conditions: HEK293 cells transfected with kinase-NanoLuciferase fusion, 2 h at 37° C.
# T3 construct: expressed in transfected cells; host or cells: HEK293
# T3 sequence (P31749 whole entry, the tested form may be a part): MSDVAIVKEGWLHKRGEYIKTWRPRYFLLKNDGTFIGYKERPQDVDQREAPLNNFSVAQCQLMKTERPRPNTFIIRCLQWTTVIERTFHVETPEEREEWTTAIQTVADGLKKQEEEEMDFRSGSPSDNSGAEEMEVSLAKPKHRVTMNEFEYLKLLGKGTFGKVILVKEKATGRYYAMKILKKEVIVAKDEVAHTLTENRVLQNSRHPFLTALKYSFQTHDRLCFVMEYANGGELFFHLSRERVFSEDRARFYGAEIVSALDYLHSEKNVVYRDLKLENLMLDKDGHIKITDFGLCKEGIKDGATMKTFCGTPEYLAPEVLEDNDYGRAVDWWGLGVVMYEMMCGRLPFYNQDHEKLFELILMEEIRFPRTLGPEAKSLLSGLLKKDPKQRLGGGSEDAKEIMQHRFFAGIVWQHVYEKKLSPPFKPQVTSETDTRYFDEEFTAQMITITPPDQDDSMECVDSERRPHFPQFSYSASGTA
# In short: as §1
# [1] = tested on: LAPC4 prostate cancer cells; experiment: Antiproliferative effects in LAPC4 cells (CellTiter Glo); conditions: Homo sapiens, LAPC4, 72 h, LAPC4 cells (AKT1 E17K allele), read-out: LAPC4 proliferation IC50
# In short: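 Seed 1,000 cells/well in IMDM/12% FBS/1% P/S; add compound dilutions (DMSO); incubate 72 h; read intracellular ATP with CellTiter Glo; fit luminescence to log(inhibitor)-response Hill curve for IC50.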
# T1 sequence (P31749 whole entry E17K, the tested form may be a part): as the sequence (P31749 whole entry, the tested form may be a part) above, with E17K counted along it
SMILES,IC50 (AKT1 E17K),IC50 (AKT2),IC50 (AKT1 WT),IC50 [1]
"C=CC(=O)Nc1c(F)cccc1C(=O)N[C@H]1CCc2cc(-n3c(-c4cccnc4N)nc4ccc(-n5cccn5)nc43)ccc21 [Example 44, N-[(1S)-5-[2-(2-aminopyridin-3-yl)-5-(pyrazol-1-yl)imidazo[4,5-b]pyridin-3-yl]-2,3-dihydro-1H-inden-1-yl]-3-fluoro-2-(prop-2-enamido)benzamide]",49 nM,103 nM,34.5 nM,122 nM
"NC(=O)/C=C/c1ncccc1C(=O)N[C@H]1CCc2cc(-n3c(-c4cccnc4N)nc4ccc(-n5cccn5)nc43)ccc21 [Example 45, N-[(1S)-5-[2-(2-aminopyridin-3-yl)-5-(pyrazol-1-yl)imidazo[4,5-b]pyridin-3-yl]-2,3-dihydro-1H-inden-1-yl]-2-[(1E)-2-carbamoyleth-1-en-1-yl]pyridine-3-carboxamide]",68.4 nM,717 nM,43 nM,296 nM
"C=CC(=O)N1CCC(N[C@H]2CCc3cc(-n4c(-c5cccnc5N)nc5ccc(-n6ccc(F)n6)nc54)ccc32)CC1 [Example 49, (S)-1-(4-((5-(2-(2-aminopyridin-3-yl)-5-(3-fluoro-1H-pyrazol-1-yl)-3H-imidazo[4,5-b]pyridin-3-yl)-2,3-dihydro-1H-inden-1-yl)amino)piperidin-1-yl)prop-2-en-1-one]",146 nM,980 nM,50.9 nM,406 nM
"C=CC(=O)N1CCC(N[C@H]2CCc3cc(-n4c(-c5cccnc5N)nc5ccc(C)nc54)ccc32)CC1 [Example 50, (S)-1-(4-((5-(2-(2-aminopyridin-3-yl)-5-methyl-3H-imidazo[4,5-b]pyridin-3-yl)-2,3-dihydro-1H-inden-1-yl)amino)piperidin-1-yl)prop-2-en-1-one]",95.1 nM,348 nM,17.6 nM,161 nM
"N#CN1CCC(N[C@H]2CCc3cc(-n4c(-c5cccnc5N)nc5ccc(-n6cccn6)nc54)ccc32)CC1 [Example 51, 4-{[(1S)-5-[2-(2-aminopyridin-3-yl)-5-(pyrazol-1-yl)imidazo[4,5-b]pyridin-3-yl]-2,3-dihydro-1H-inden-1-yl]amino}piperidine-1-carbonitrile]",727 nM,5560 nM,115 nM,1460 nM
"C=CC(=O)N(C)CC(=O)N[C@H]1CCc2cc(-n3c(-c4cccnc4N)nc4ccc(-n5cccn5)nc43)ccc21 [Example 52, (S)-N-(2-((5-(2-(2-aminopyridin-3-yl)-5-(1H-pyrazol-1-yl)-3H-imidazo[4,5-b]pyridin-3-yl)-2,3-dihydro-1H-inden-1-yl)amino)-2-oxoethyl)-N-methylacrylamide]",949 nM,3480 nM,174 nM,911 nM
"C=CC(=O)N1CCC(CN[C@H]2CCc3cc(-n4c(-c5cccnc5N)nc5ccc(-n6cccn6)nc54)ccc32)CC1 [Example 68, 1-[4-({[(1S)-5-[2-(2-aminopyridin-3-yl)-5-(pyrazol-1-yl)imidazo[4,5-b]pyridin-3-yl]-2,3-dihydro-1H-inden-1-yl]amino}methyl)piperidin-1-yl]prop-2-en-1-one]",21.9 nM,74.2 nM,9.84 nM,75.6 nM
"C=CC(=O)Nc1cc(O)ccc1C(=O)N[C@H]1CCc2cc(-n3c(-c4cccnc4N)nc4ccc(-n5cccn5)nc43)ccc21 [Example 70, N-[(1S)-5-[2-(2-aminopyridin-3-yl)-5-(pyrazol-1-yl)imidazo[4,5-b]pyridin-3-yl]-2,3-dihydro-1H-inden-1-yl]-4-hydroxy-2-(prop-2-enamido)benzamide]",288 nM,1340 nM,83.7 nM,1040 nM
"C=CC(=O)N1CCC(N[C@@H]2c3ccc(-n4c(-c5cccnc5N)nc5ccc(-n6cccn6)nc54)cc3C[C@H]2F)CC1 [Example 75, 1-(4-(((1R,2R)-5-(2-(2-aminopyridin-3-yl)-5-(1H-pyrazol-1-yl)-3H-imidazo[4,5-b]pyridin-3-yl)-2-fluoro-2,3-dihydro-1H-inden-1-yl)amino)piperidin-1-yl)prop-2-en-1-one]",35.9 nM,511 nM,20 nM,287 nM
"C=CC(=O)N1CCC12CCC(N[C@H]1CCc3cc(-n4c(-c5cccnc5N)nc5ccc(-n6cccn6)nc54)ccc31)CC2 (stereo partly drawn) [Example 80, 1-(7-{[(1S)-5-[2-(2-aminopyridin-3-yl)-5-(pyrazol-1-yl)imidazo[4,5-b]pyridin-3-yl]-2,3-dihydro-1H-inden-1-yl]amino}-1-azaspiro[3.5]nonan-1-yl)prop-2-en-1-one]",41.7 nM,166 nM,15.7 nM,120 nM
"C=C(F)C(=O)N1CC2(CC(N[C@H]3CCc4cc(-n5c(-c6cccnc6N)nc6ccc(-n7cccn7)nc65)ccc43)C2)C1 [Example 83, (S)-1-(6-((5-(2-(2-aminopyridin-3-yl)-5-(1H-pyrazol-1-yl)-3H-imidazo[4,5-b]pyridin-3-yl)-2,3-dihydro-1H-inden-1-yl)amino)-2-azaspiro[3.3]heptan-2-yl)-2-fluoroprop-2-en-1-one]",192 nM,583 nM,56.2 nM,506 nM
"C=CC(=O)N1CCC(N[C@H]2CCc3cc(-n4c(-c5cccnc5N)nc5ccc(C6CC6)nc54)ccc32)CC1 [Example 85, (S)-1-(4-((5-(2-(2-aminopyridin-3-yl)-5-cyclopropyl-3H-imidazo[4,5-b]pyridin-3-yl)-2,3-dihydro-1H-inden-1-yl)amino)piperidin-1-yl)prop-2-en-1-one]",546 nM,865 nM,46 nM,1390 nM

# Now from value to molecule:
IC50 (AKT1 E17K),IC50 (AKT2),IC50 (AKT1 WT),IC50 [1],SMILES
28.6 nM,52.4 nM,19 nM,72.4 nM,"C=CS(=O)(=O)N1CCC(N[C@H]2CCc3cc(-n4c(-c5cccnc5N)nc5ccc(-n6cccn6)nc54)ccc32)CC1 [Example 61, 3-{3-[(1S)-1-{[1-(ethenesulfonyl)piperidin-4-yl]amino}-2,3-dihydro-1H-inden-5-yl]-5-(pyrazol-1-yl)imidazo[4,5-b]pyridin-2-yl}pyridin-2-amine]"
87.9 nM,107 nM,21.8 nM,287 nM,"C=CC(=O)N1CCC(N(C)[C@H]2CCc3cc(-n4c(-c5cccnc5N)nc5ccc(-n6cccn6)nc54)ccc32)CC1 [Example 67, (S)-1-(4-((5-(2-(2-aminopyridin-3-yl)-5-(1H-pyrazol-1-yl)-3H-imidazo[4,5-b]pyridin-3-yl)-2,3-dihydro-1H-inden-1-yl)(methyl)amino)piperidin-1-yl)prop-2-en-1-one]"
57.7 nM,226 nM,25.3 nM,358 nM,"CC#CC(=O)N1CCC(N[C@H]2CCc3cc(-n4c(-c5cccnc5N)nc5ccc(-n6cccn6)nc54)ccc32)CC1 [Example 69, 1-(4-{[(1S)-5-[2-(2-aminopyridin-3-yl)-5-(pyrazol-1-yl)imidazo[4,5-b]pyridin-3-yl]-2,3-dihydro-1H-inden-1-yl]amino}piperidin-1-yl)but-2-yn-1-one]"
9.43 nM,31.8 nM,11.5 nM,29.8 nM,"C=CC(=O)NCc1ccccc1C(=O)N[C@H]1CCc2cc(-n3c(-c4cccnc4N)nc4ccc(-n5cccn5)nc43)ccc21 [Example 71, N-[(1S)-5-[2-(2-aminopyridin-3-yl)-5-(pyrazol-1-yl)imidazo[4,5-b]pyridin-3-yl]-2,3-dihydro-1H-inden-1-yl]-2-(prop-2-enamidomethyl)benzamide]"
> 1000 nM,2940 nM,179 nM,1630 nM,"C=CC(=O)N1CCC(N(CCOC)[C@H]2CCc3cc(-n4c(-c5cccnc5N)nc5ccc(-n6cccn6)nc54)ccc32)CC1 [Example 74, 1-(4-{[(1S)-5-[2-(2-aminopyridin-3-yl)-5-(pyrazol-1-yl)imidazo[4,5-b]pyridin-3-yl]-2,3-dihydro-1H-inden-1-yl](2-methoxyethyl)amino}piperidin-1-yl)prop-2-en-1-one]"
60.1 nM,232 nM,23.3 nM,369 nM,"C=CC(=O)N1CCC(N[C@@H]2c3ccc(-n4c(-c5cccnc5N)nc5ccc(-n6cccn6)nc54)cc3C[C@@H]2F)CC1 [Example 76, 1-(4-(((1R,2S)-5-(2-(2-aminopyridin-3-yl)-5-(1H-pyrazol-1-yl)-3H-imidazo[4,5-b]pyridin-3-yl)-2-fluoro-2,3-dihydro-1H-inden-1-yl)amino)piperidin-1-yl)prop-2-en-1-one]"
264 nM,278 nM,34.1 nM,327 nM,"C=C(F)C(=O)N1CCC2(CC1)CC(N[C@H]1CCc3cc(-n4c(-c5cccnc5N)nc5ccc(-n6cccn6)nc54)ccc31)C2 [Example 84, (S)-1-(2-((5-(2-(2-aminopyridin-3-yl)-5-(1H-pyrazol-1-yl)-3H-imidazo[4,5-b]pyridin-3-yl)-2,3-dihydro-1H-inden-1-yl)amino)-7-azaspiro[3.5]nonan-7-yl)-2-fluoroprop-2-en-1-one]"
153 nM,584 nM,13.7 nM,180 nM,"C=CC(=O)N1CCC(N[C@H]2CCc3cc(-n4c(-c5cccnc5N)nc5ccc(N6CCOCC6)nc54)ccc32)CC1 [Example 86, (S)-1-(4-((5-(2-(2-aminopyridin-3-yl)-5-morpholino-3H-imidazo[4,5-b]pyridin-3-yl)-2,3-dihydro-1H-inden-1-yl)amino)piperidin-1-yl)prop-2-en-1-one]"
